# Source: BindingDB's records for doi:10.1021/acschembio.7b00385 (Novartis Pharma, 2017)
# Legend:
# Experiment in all cases: Liquid growth assay
# Conditions in all cases: 30 °C
# Actin [R183K] = Actin [R183K] (Saccharomyces cerevisiae (strain ATCC 204508 / S288c), UniProt P60010, R183K)
# Procedure: (§1) Saturated ACT1 wild type (WT) as well as engineered ACT1 R183K (R183K) and ACT1 R335K (R335K) cultures were adjusted to 10 OD600 and 3 uL of serial 1:3 dilutions spotted on YPD agar supplemented with indicated concentrations of Chivosazole F. Growth was scored after 3 days incubation at 30 °C.
# Actin [R335K] = Actin [R335K] (Saccharomyces cerevisiae (strain ATCC 204508 / S288c), UniProt P60010, R335K)
# Procedure: as §1
# Actin = Actin (Saccharomyces cerevisiae (strain ATCC 204508 / S288c), UniProt P60010)
# Procedure: as §1
Structure (SMILES),IC50 (Actin [R183K]),IC50 (Actin [R335K]),IC50 (Actin)
C/C1=C\[C@@H](C)[C@@H](C)OC(=O)C[C@H](c2ccc(O)cc2)NC(=O)[C@@H](Cc2c[nH]c3ccccc23)N(C)C(=O)[C@H](C)NC(=O)[C@@H](C)C1 [CHEBI:84382],11900 nM,15100 nM,16700 nM
C/C1=C/C(=O)O[C@@H]2C[C@@H](CC[C@H](C)/C=C\C=C\CC1)O[C@@](O)([C@@H]1CSC(=O)N1)C2 [LAT-A],110 nM,40 nM,70 nM
COC1CC(O)/C=C/C=C/C=C\C(C)C(C(C)C(O)CC(C)O)OC(=O)\C=C/C=C/C=C\C(C)=C\C(C)C(O)/C=C\C=C\c2coc(n2)C1C (centres undefined) [SCHEMBL1889389],380 nM,270 nM,140 nM
